Nine compounds from publication PMC12401824, “Studies on the impact of modifications at the Gln-Trp site in RM2-based GRPR ligands” (EJNMMI Research, 2025) can be followed below.

The target in one data set is T1, GRPR (Homo sapiens, UniProt P30550).
T1 construct: host or cells: PC-3 cells
Nature of the data set: GRPR affinity (IC50), competitive binding on PC-3 cells vs [3-[^125I]I-D-Tyr^6]MJ9. The note with it: 2 h, rt. Here is the method:
IC50 values of all compounds were determined according to a previously published procedure. Detailed information on culturing PC-3 cells and on the execution of IC50 studies is provided in the supplementary materials. In brief, competitive binding studies were performed in triplicate on PC-3 cells (1.5 × 10^5 cells in 1 mL/well) after incubation at room temperature for 2 h, using [3-[^125I]I-D-Tyr^6]MJ9 (0.2 nM/well) as radiolabeled reference (n = 3).
After removal of the culture medium, the cells were washed once with 500 µL of HBSS (Hank’s balanced salt solution, Biochrom GmbH, Berlin, Germany, with addition of 1% bovine serum albumin (BSA, v/v)) and left in 200 µL HBSS (1% BSA, v/v) for 9 min at rt for equilibration. Next, 25 µL per well of solutions, containing either HBSS (1% BSA, v/v) as control or the respective compound in increasing concentration (10^-10 M – 10^-4 M in HBSS (1% BSA, v/v)), were added with subsequent addition of 25 µL of [3-[^125I]I-D-Tyr^6]MJ9 (2.0 nm) in HBSS (1% BSA, v/v).
All experiments were performed in triplicate for each concentration. After 2 h incubation at rt, the experiment was terminated by removal of the medium and consecutive rinsing with 300 µL of HBSS (1% BSA, v/v). The media of both steps were combined in one fraction and represent the amount of free radiolabeled reference. Afterwards, the cells were lysed with 300 µL of 1 M NaOH for at least 15 min and united with the 300 µL NaOH of the following washing step. Quantification of bound and free radiolabeled reference was accomplished in a γ-counter. IC50 determination for each conjugate was repeated twice.

Data set [1] in a line: Metabolic stability in vitro in human serum (37 °C, 72 ± 2 h). Type of data set: in vitro ADME. To be noted: ^177Lu-labeled NeoB and UL analogs, n = 3. Here is the method: Metabolic stability in vitro was determined applying a procedure published by Linder et al. that was slightly modified. Immediately after labeling, human serum (200 µL) was added to the labeling solution (~ 30 µL) and the mixture was incubated at 37 °C for 72 ± 2 h. Proteins were precipitated by treatment with ice-cold ethanol (150 µL) and ice-cold acetonitrile (450 µL), followed by centrifugation at 13,000 rpm for 5 min. The supernatants were decanted and further analyzed using radio RP-HPLC.

[2] abbreviates: Cu-complexed, n = 3, read-out: IC50 (nM), Cu-labeled.
[3] abbreviates: Ga-complexed, n = 3, read-out: IC50 (nM), Ga-labeled.

Molecules are shown by their SMILES. Where two headings read alike, the source gives them in different places. Starred links: 1 amine or outer side, 2 acyl side, 3 side chain; linkers in the order of their positions; H or OH if unused. Non-standard residues stand in square brackets, D forms with d. Residues, ends and D or L forms follow the SMILES beside them. *: point of attachment. X2 = O=C(O)CN1CCN(CC(=O)O)CCN(CC(=O)NCc2ccc(NC(=O)COCC(=O)*)cc2)CCN(CC(=O)O)CC1; DOTA = O=C(O)CN1CCN(CC(=O)O)CCN(CC(=O)*)CCN(CC(=O)O)CC1; NODAGA = O=C(O)CN1CCN(CC(=O)O)CCN(C(CCC(=O)*)C(=O)O)CC1; NOTA = O=C(O)CN1CCN(CC(=O)O)CCN(CC(=O)*)CC1; Sta = CC(C)C[C@H](N)[C@@H](O)CC(=O)O; Bta = N[C@@H](Cc1csc2ccccc12)C(=O)O; X1 = O=C(CN1CCC(N[*:1])CC1)[*:2]; NHCH(iBu)2 = CC(C)CC(CC(C)C)N*; hSer = N[C@@H](CCO)C(=O)O

T1 sequence (P30550 whole entry): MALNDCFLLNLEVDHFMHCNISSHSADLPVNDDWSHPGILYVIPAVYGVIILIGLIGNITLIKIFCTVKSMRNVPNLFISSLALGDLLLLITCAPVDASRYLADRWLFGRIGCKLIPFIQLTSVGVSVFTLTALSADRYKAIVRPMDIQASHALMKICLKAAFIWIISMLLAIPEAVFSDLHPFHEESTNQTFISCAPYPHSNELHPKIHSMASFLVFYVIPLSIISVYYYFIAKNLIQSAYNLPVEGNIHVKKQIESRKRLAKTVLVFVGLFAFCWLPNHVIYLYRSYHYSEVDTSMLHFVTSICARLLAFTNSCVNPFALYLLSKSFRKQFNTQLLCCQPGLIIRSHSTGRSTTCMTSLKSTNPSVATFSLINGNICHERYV

Regarding `CC(C)C[C@H](NC(=O)C[C@H](O)[C@H](CC(C)C)NC(=O)[C@H](Cc1c[nH]cn1)NC(=O)CNC(=O)[C@@H](NC(=O)[C@H](C)NC(=O)[C@H](Cc1c[nH]c2ccccc12)NC(=O)[C@H](CCO)NC(=O)[C@@H](Cc1ccccc1)NC(=O)CN1CCC(NC(=O)CCC(C(=O)O)N2CCN(CC(=O)O)CCN(CC(=O)O)CC2)CC1)C(C)C)C(N)=O` (stereo partly drawn) [NODAGA-[des-DOTA, Hse^7]RM2] ({NODAGA}-[X1][dF][hSer]WAVGH[Sta]L-NH2), the IC50 – broadly, the midpoint of a concentration-inhibition curve – at GRPR (setting [2]) came to 11.8 ± 2.1 nM; at GRPR (setting [3]), 7.2 ± 0.7 nM. `CC(C)C[C@H](NC(=O)C[C@H](O)[C@H](CC(C)C)NC(=O)[C@H](Cc1c[nH]cn1)NC(=O)CNC(=O)[C@@H](NC(=O)[C@H](C)NC(=O)[C@H](Cc1csc2ccccc12)NC(=O)[C@H](CCC(N)=O)NC(=O)[C@@H](Cc1ccccc1)NC(=O)CN1CCC(NC(=O)CN2CCN(CC(=O)O)CCN(CC(=O)O)CC2)CC1)C(C)C)C(N)=O` [NOTA-[des-DOTA, Bta^8]RM2] ({NOTA}-[X1][dF]Q[Bta]AVGH[Sta]L-NH2): the IC50 at GRPR (setting [2]) was determined as 2.8 ± 0.2 nM; at GRPR (setting [3]), 1.8 nM.

Take `CC(C)C[C@H](NC(=O)C[C@H](O)[C@H](CC(C)C)NC(=O)[C@H](Cc1c[nH]cn1)NC(=O)CNC(=O)[C@@H](NC(=O)[C@H](C)NC(=O)[C@H](Cc1c[nH]c2ccccc12)NC(=O)[C@H](CCO)NC(=O)[C@@H](Cc1ccccc1)NC(=O)CN1CCC(NC(=O)CN2CCN(CC(=O)O)CCN(CC(=O)O)CC2)CC1)C(C)C)C(N)=O` [NOTA-[des-DOTA, Hse^7]RM2] ({NOTA}-[X1][dF][hSer]WAVGH[Sta]L-NH2): the half-inhibitory concentration (IC50) at GRPR (setting [2]) came out at 14.2 ± 2.7 nM; on GRPR (setting [3]), 8.4 ± 1 nM. Turning to `CC(C)CC(CC(C)C)NC(=O)[C@H](Cc1cnc[nH]1)NC(=O)CNC(=O)[C@@H](NC(=O)[C@H](C)NC(=O)[C@H](Cc1c[nH]c2ccccc12)NC(=O)[C@H](CCC(N)=O)NC(=O)[C@@H](Cc1ccccc1)NC(=O)COCC(=O)Nc1ccc(CNC(=O)CN2CCN(CC(=O)O)CCN(CC(=O)O)CCN(CC(=O)O)CC2)cc1)C(C)C` [NeoB, reference compound], the “Percentage of intact compound in human serum” value (from here on “Percentage of intact compound”) in data set [1] amounted to 60.8 ± 1.2%.

With `CC(C)CC(CC(C)C)NC(=O)[C@H](Cc1c[nH]cn1)NC(=O)CNC(=O)[C@@H](NC(=O)[C@H](C)NC(=O)[C@H](Cc1csc2ccccc12)NC(=O)[C@H](CCC(N)=O)NC(=O)[C@@H](Cc1ccccc1)NC(=O)COCC(=O)Nc1ccc(CNC(=O)CN2CCN(CC(=O)O)CCN(CC(=O)O)CCN(CC(=O)O)CC2)cc1)C(C)C` [[Bta^8]NeoB] (X2-[dF]Q[Bta]AVGH-{NHCH(iBu)2}; N-terminus and C-terminus assumed), the “Percentage of intact compound” value in data set [1] was determined as 36.2 ± 2.6%.

In the case of `CC(C)C[C@H](NC(=O)C[C@H](O)[C@H](CC(C)C)NC(=O)[C@H](Cc1c[nH]cn1)NC(=O)CNC(=O)[C@@H](NC(=O)[C@H](C)NC(=O)[C@H](Cc1csc2ccccc12)NC(=O)[C@H](CCC(N)=O)NC(=O)[C@@H](Cc1ccccc1)NC(=O)CN1CCC(NC(=O)CN2CCN(CC(=O)O)CCN(CC(=O)O)CCN(CC(=O)O)CC2)CC1)C(C)C)C(N)=O` [[Bta^8]RM2] ({DOTA}-[X1][dF]Q[Bta]AVGH[Sta]L-NH2), the IC50 at GRPR (setting [2]) is 4.2 ± 0.6 nM; on GRPR (setting [3]), 2.3 ± 0.1 nM. As for `CC(C)CC(CC(C)C)NC(=O)[C@H](Cc1c[nH]cn1)NC(=O)CNC(=O)[C@@H](NC(=O)[C@H](C)NC(=O)[C@H](Cc1c[nH]c2ccccc12)NC(=O)[C@H](CCO)NC(=O)[C@@H](Cc1ccccc1)NC(=O)COCC(=O)Nc1ccc(CNC(=O)CN2CCN(CC(=O)O)CCN(CC(=O)O)CCN(CC(=O)O)CC2)cc1)C(C)C` [[Hse^7]NeoB] (X2-[dF][hSer]WAVGH-{NHCH(iBu)2}; N-terminus and C-terminus assumed), the “Percentage of intact compound” value in data set [1] worked out at 57.4 ± 2.1%. Turning to `CC(C)C[C@H](NC(=O)C[C@H](O)[C@H](CC(C)C)NC(=O)[C@H](Cc1c[nH]cn1)NC(=O)CNC(=O)[C@@H](NC(=O)[C@H](C)NC(=O)[C@H](Cc1c[nH]c2ccccc12)NC(=O)[C@H](CCO)NC(=O)[C@@H](Cc1ccccc1)NC(=O)CN1CCC(NC(=O)CN2CCN(CC(=O)O)CCN(CC(=O)O)CCN(CC(=O)O)CC2)CC1)C(C)C)C(N)=O` [[Hse^7]RM2] ({DOTA}-[X1][dF][hSer]WAVGH[Sta]L-NH2), the IC50 was 33 ± 2.7 nM on GRPR (setting [2]) and 7.7 ± 0.7 nM at GRPR (setting [3]). As to `CC(C)CC(CC(C)C)NC(=O)[C@H](Cc1c[nH]cn1)NC(=O)CNC(=O)[C@@H](NC(=O)[C@H](C)NC(=O)[C@](C)(Cc1c[nH]c2ccccc12)NC(=O)[C@H](CCC(N)=O)NC(=O)[C@@H](Cc1ccccc1)NC(=O)COCC(=O)Nc1ccc(CNC(=O)CN2CCN(CC(=O)O)CCN(CC(=O)O)CCN(CC(=O)O)CC2)cc1)C(C)C` [[α-Me-Trp^8]NeoB], in data set [1], the “Percentage of intact compound” value is listed as 70.7 ± 2.8%.
